Test results from patent publication US7022650B2, “4-trifluoromethylpyrazolyl-substituted pyridines and pyrimidines” (Bayer CropScience GmbH, priority 2002, dated 2006).

Columns and labels:
Agropyrons repens = assay: Weed plant herbicidal activity, pre-emergence; format: in vivo; details: 20 g of active substance per hectare, visual scoring after 3 to 4 weeks
From the text: (§1) 1. Weed plant herbicidal activity and crop plant tolerance, pre-emergence Seeds of monocot and dicot weed plants and of crop plants are placed in sandy loam soil in cardboard pots and are covered with soil. The compounds of the invention, formulated as wettable powders or emulsifiable concentrates, are then applied as an aqueous suspension or emulsion, respectively, in different dosages to the surface of the covering soil at an application rate of 600 to 800 l of water per ha (converted). Following treatment, the pots are placed in a greenhouse and kept under good growth conditions for the weeds. Visual scoring of the plant damage or emergence damage is made after the experimental plants have emerged, after an experimental period of 3 to 4 weeks, in comparison with untreated controls. […] At the same application rate this compound of the invention causes no damage to the crop plants Oryza sativa (rice) or Zea mays (maize).

Alopecurus myosuroides = assay: Weed plant herbicidal activity, pre-emergence; format: in vivo; details: 20 g of active substance per hectare, visual scoring after 3 to 4 weeks
From the text: as §1

Amaranthus retroflexus = assay: Weed plant herbicidal activity, pre-emergence; format: in vivo; details: 20 g of active substance per hectare, visual scoring after 3 to 4 weeks
From the text: as §1

Avena fatua = assay: Weed plant herbicidal activity, pre-emergence; format: in vivo; details: 20 g of active substance per hectare, visual scoring after 3 to 4 weeks
From the text: as §1

Digitaria sanguinalis [1] = assay: Weed plant herbicidal activity, pre-emergence; format: in vivo; details: 20 g of active substance per hectare, visual scoring after 3 to 4 weeks
From the text: as §1

Galium aparine = assay: Weed plant herbicidal activity, pre-emergence; format: in vivo; details: 20 g of active substance per hectare, visual scoring after 3 to 4 weeks
From the text: as §1

Lolium multiflorum = assay: Weed plant herbicidal activity, pre-emergence; format: in vivo; details: 20 g of active substance per hectare, visual scoring after 3 to 4 weeks
From the text: as §1

Setaria viridis = assay: Weed plant herbicidal activity, pre-emergence; format: in vivo; details: 20 g of active substance per hectare, visual scoring after 3 to 4 weeks
From the text: as §1

Sorghum halepense = assay: Weed plant herbicidal activity, pre-emergence; format: in vivo; details: 20 g of active substance per hectare, visual scoring after 3 to 4 weeks
From the text: as §1

Veronica persica [2] = assay: Weed plant herbicidal activity, pre-emergence; format: in vivo; details: 20 g of active substance per hectare, visual scoring after 3 to 4 weeks
From the text: as §1

Oryza sativa (rice) [3] = assay: Crop plant tolerance, pre-emergence; format: in vivo; details: 20 g of active substance per hectare, 3 to 4 weeks
From the text: as §1

Zea mays (maize) = assay: Crop plant tolerance, pre-emergence; format: in vivo; details: 20 g of active substance per hectare, 3 to 4 weeks
From the text: as §1

Chenopodium album = assay: Weed plant herbicidal activity, post-emergence; format: in vivo; details: three-leaf stage, 80 g of active substance per hectare, scored after 3 to 4 weeks
Protocol: (§2) 2. Weed plant herbicidal activity and crop plant tolerance, post-emergence Seeds of monocot and dicot weed plants and of crop plants are placed in sandy loam in cardboard pots, covered with soil, and grown under good growth conditions in a greenhouse. Two to three weeks after sowing, the experimental plants are treated at the three-leaf stage. The compounds of the invention, formulated as wettable powders or as emulsifiable concentrates, are sprayed at different dosages onto the surface of the green parts of the plants at an application rate of 600 to 800 l of water per ha (converted). After the experimental plants have stood in the greenhouse for 3 to 4 weeks under optimum growth conditions, the activity of the compounds is scored. […] At the same application rate this compound of the invention causes no damage to the crop plant Oryza sativa (rice) and 20% damage to Triticum aestivum (wheat).

Digitaria sanguinalis [4] = assay: Weed plant herbicidal activity, post-emergence; format: in vivo; details: three-leaf stage, 80 g of active substance per hectare, scored after 3 to 4 weeks
Protocol: as §2

Matricaria inodora = assay: Weed plant herbicidal activity, post-emergence; format: in vivo; details: three-leaf stage, 80 g of active substance per hectare, scored after 3 to 4 weeks
Protocol: as §2

Pharbitis purpureum = assay: Weed plant herbicidal activity, post-emergence; format: in vivo; details: three-leaf stage, 80 g of active substance per hectare, scored after 3 to 4 weeks
Protocol: as §2

Veronica persica [5] = assay: Weed plant herbicidal activity, post-emergence; format: in vivo; details: three-leaf stage, 80 g of active substance per hectare, scored after 3 to 4 weeks
Protocol: as §2

Oryza sativa (rice) [6] = assay: Crop plant tolerance, post-emergence; format: in vivo; details: 80 g of active substance per hectare, 3 to 4 weeks
Protocol: as §2

[7] = tested on: Triticum aestivum (wheat); assay: Crop plant tolerance, post-emergence; format: in vivo; details: 80 g of active substance per hectare, 3 to 4 weeks
Protocol: as §2

Row | Compound | melting point | activity against Agropyrons repens (Agropyrons repens) | activity against Alopecurus myosuroides (Alopecurus myosuroides) | activity against Amaranthus retroflexus (Amaranthus retroflexus) | activity against Avena fatua (Avena fatua) | activity against Digitaria sanguinalis (Digitaria sanguinalis [1]) | activity against Galium aparine (Galium aparine) | activity against Lolium multiflorum (Lolium multiflorum) | activity against Setaria viridis (Setaria viridis) | activity against Sorghum halepense (Sorghum halepense) | activity against Veronica persica (Veronica persica [2]) | damage to the crop plant Oryza sativa (rice) (Oryza sativa (rice) [3]) | damage to the crop plant Zea mays (maize) (Zea mays (maize)) | activity against Chenopodium album (Chenopodium album) | activity against Digitaria sanguinalis (Digitaria sanguinalis [4]) | activity against Matricaria inodora (Matricaria inodora) | activity against Pharbitis purpureum (Pharbitis purpureum) | activity against Veronica persica (Veronica persica [5]) | damage to the crop plant Oryza sativa (rice) (Oryza sativa (rice) [6]) | damage to Triticum aestivum (wheat) [7]
1 | Cc1cnc(-n2cc(C(F)(F)F)cn2)nc1Oc1csc(C(F)(F)F)c1 [1.8, 5-methyl-2-(4-trifluoromethyl-1H-1-pyrazolyl)-4-(5-trifluoromethyl-3-thienyloxy)pyrimidine] | 94 to 96 °C |  |  |  |  |  |  |  |  |  |  |  |  |  |  |  |  |  |  | 
2 | COc1cnc(-n2cc(C(F)(F)F)cn2)nc1Oc1csc(C(F)(F)F)c1 [Example No. 1.22, 5-methoxy-2-(4-trifluoromethyl-1H-1-pyrazolyl)-4-(5-trifluoromethyl-3-thienyloxy)pyrimidine] | 109 to 111 °C | at least 80% | at least 80% | at least 80% | at least 80% | at least 80% | at least 80% | at least 80% | at least 80% | at least 80% | at least 80% | no damage | no damage | at least 90% | at least 90% | at least 90% | at least 90% | at least 90% | no damage | 20%
